Results on two compounds are retold here after US7138233B2, “IN vitro sorting method” (Medical Research Council, priority 1997, dated 2006).

Assay [1] concerns E. coli S30 coupled in vitro transcription-translation system. The assay can be described thus: Self-methylation of M.EcoRI gene in coupled in vitro transcription/translation, resistance to cleavage by EcoRI. The format is biochemical. To be noted: translation inhibited, in the presence of puromycin. The method, then: The PCR-amplified DNA-methylases genes described above are expressed in a prokaryotic in vitro coupled transcription/translation system designed for linear templates (Lesley et al., 1991). A commercial preparation of this system is used (E. coli S30 Extract System for Linear Templates; Promega) supplemented with T7 RNA polymerase and S-adenosyl methionine (SAM) at 80 μM concentration.
Methylation is assayed by measuring the resistance of DNA fragments labelled with DIG and biotin to cleavage by the cognate restriction enzyme using the Boehringer-Mannheim DIG-Biotin ELISA or with radioactively labelled DNA fragments and streptavidin coated magnetic beads. […] The absorbance (at 450 minus 650 nm) is measured after quenching with 0.5M H2SO4 (130 μl/well).
For the radioactive assay, the plasmids and PCR fragments described above are amplified by PCR using primers LMB2-Biotin (SEQ. ID. No. 9) and LMB3 and α-P^32-CTP to give P^32-labelled DNA fragments labelled at one end by biotin and which carry the T7 RNA polymerase promoter, the phage T7 gene 10 translational start site, the methyltransferase gene and the relevant M/R sites. […] The amount of radioactively-labelled DNA on the beads and in the supernatants is determined by scintillation. […]

The test system of assay [2] is coupled transcription-translation reaction. Description: Production of active DHFR in a 2 hour coupled transcription-translation reaction. The format is biochemical, E. coli. To be noted: 0.1 mM, alone or in combination; 2 hour reaction.

For the compound `COc1ccc(C[C@H](N)C(=O)N[C@H]2[C@@H](O)[C@H](n3cnc4c(N(C)C)ncnc43)O[C@@H]2CO)cc1` [puromycin], the “resistance to cleavage by EcoRI” value in assay [1] was “not observed”.
As to NADPH, in assay [2], the “inhibition of the production of active DHFR” value is “does not cause any inhibition”.
